{"source": "patent US9301529B2", "about": "“Polysubstituted pyridyl pyrazolecarboxamide and preparation method and use thereof” (ZHAOQING ZHENGE BIOLOGICAL TECHNOLOGY CO., LTD, priority 2014, dated 2016)", "key": {"Ostrinia furnacalis": {"system": "Ostrinia furnacalis", "experiment": "Determination of activity against Ostrinia furnacalis, leaf dipping method", "assay_type": "in vivo", "settings": "for insecticidal activity (mortality): leaf dipping, Brassica oleracea leaf, 72 hours", "description": "Determination of Activity Against Ostrinia furnacalis\nLeaf dipping method was adopted, a leaf of Brassica oleracea was clamped by a tweezer, and dipped in insecticide solution having a certain concentration for 3 to 5 seconds, the excessive solution was threw off, one leaf at each time, and three leaves for each sample. The leaves were placed onto a treatment paper according to the sequence of sample marking and air-dried naturally, then put into a marked straight tube of 10 cm length, and 30 Ostrinia furnacalis larvae being […] were place in, the tube opening was covered by a gauze, and placed in a standard treatment chamber, the result was checked and the mortality was calculated at 72 hours.\n(§1) Some of the compounds in Example 1 were used to conduct the test, and a control compound was selected to conduct an indoor insecticidal activity data (%, concentration unit: ppm) determination test under the same condition, the results of the test was shown in Table 2."}, "Helicoverpa armigera": {"system": "Helicoverpa armigera", "experiment": "Determination of activity against Helicoverpa armigera, leaf dipping method (IRAC)", "assay_type": "in vivo", "settings": "for insecticidal activity (mortality): leaf dipping, Brassica oleracea leaf, 72 hour", "description": "Determination of Activity Against Helicoverpa armigera\nLeaf dipping method (proposed by Insecticide Resistance Action Committee, IRAC) was adopted: a leaf of Brassica oleracea was clamped by a tweezer and dipped into an insecticide solution having a certain concentration to be tested for 3 to 5 seconds, the excessive solution was threw off, one leaf at each time, three leaves for each sample. The leaves were placed onto a treatment paper according to sequence of sample marking and air-dried naturally, then put into a marked straight tube of 10 cm length, […] in, the tube opening was covered by a gauze, and placed into a standard treatment chamber, the result was checked and the mortality was calculated at 72 hour.\nas §1"}, "[1]": {"settings": "Ostrinia furnacalis, in Brassica oleracea, foliar, 72 h, read-out: insecticidal activity (mortality)"}, "[2]": {"settings": "Helicoverpa armigera, in Brassica oleracea, foliar, 72 h, read-out: insecticidal activity (mortality)"}}, "data": [{"smiles": "CC(C)(C)NC(=O)c1cc(Cl)cc(Cl)c1NC(=O)c1cc(Br)nn1-c1ncccc1Cl", "note": "[Compound I-24, 1-(3-chloropyridine-2-yl)-3-bromo-N-(2,4-dichloro-6-tert-butylaminocarbonyl)phenyl-1H-pyrazole-5-formamide]", "values": [{"measurement": "insecticidal activity (mortality)", "setting": "Ostrinia furnacalis; 0.031 ppm", "result": 100, "unit": "%"}, {"measurement": "insecticidal activity (mortality)", "setting": "Ostrinia furnacalis; 0.0625 ppm", "result": 100, "unit": "%"}, {"measurement": "insecticidal activity (mortality)", "setting": "Ostrinia furnacalis; 0.125 ppm", "result": 100, "unit": "%"}, {"measurement": "insecticidal activity (mortality)", "setting": "Ostrinia furnacalis; 0.25 ppm", "result": 100, "unit": "%"}, {"measurement": "insecticidal activity (mortality)", "setting": "Ostrinia furnacalis; 0.5 ppm", "result": 100, "unit": "%"}, {"measurement": "insecticidal activity (mortality)", "setting": "Helicoverpa armigera; 0.016 ppm", "result": 60, "unit": "%"}, {"measurement": "insecticidal activity (mortality)", "setting": "Helicoverpa armigera; 0.031 ppm", "result": 80, "unit": "%"}, {"measurement": "insecticidal activity (mortality)", "setting": "Helicoverpa armigera; 0.0625 ppm", "result": 100, "unit": "%"}, {"measurement": "insecticidal activity (mortality)", "setting": "Helicoverpa armigera; 0.125 ppm", "result": 100, "unit": "%"}, {"measurement": "insecticidal activity (mortality)", "setting": "Helicoverpa armigera; 0.25 ppm", "result": 100, "unit": "%"}, {"measurement": "insecticidal activity (mortality)", "setting": "Helicoverpa armigera; 0.5 ppm", "result": 100, "unit": "%"}]}, {"smiles": "CNC(=O)c1cc(Cl)cc(C)c1NC(=O)c1cc(Br)nn1-c1ncccc1Cl", "note": "[KC]", "values": [{"measurement": "mortality at 0.016 ppm", "setting": "Ostrinia furnacalis; [1]", "result": 0, "unit": "%"}, {"measurement": "mortality at 0.031 ppm", "setting": "Ostrinia furnacalis; [1]", "result": 30, "unit": "%"}, {"measurement": "mortality at 0.0625 ppm", "setting": "Ostrinia furnacalis; [1]", "result": 55, "unit": "%"}, {"measurement": "mortality at 0.125 ppm", "setting": "Ostrinia furnacalis; [1]", "result": 75, "unit": "%"}, {"measurement": "mortality at 0.25 ppm", "setting": "Ostrinia furnacalis; [1]", "result": 100, "unit": "%"}, {"measurement": "mortality at 0.5 ppm", "setting": "Ostrinia furnacalis; [1]", "result": 100, "unit": "%"}, {"measurement": "mortality at 0.016 ppm", "setting": "Helicoverpa armigera; [2]", "result": 0, "unit": "%"}, {"measurement": "mortality at 0.031 ppm", "setting": "Helicoverpa armigera; [2]", "result": 0, "unit": "%"}, {"measurement": "mortality at 0.0625 ppm", "setting": "Helicoverpa armigera; [2]", "result": 30, "unit": "%"}, {"measurement": "mortality at 0.125 ppm", "setting": "Helicoverpa armigera; [2]", "result": 55, "unit": "%"}, {"measurement": "mortality at 0.25 ppm", "setting": "Helicoverpa armigera; [2]", "result": 70, "unit": "%"}, {"measurement": "mortality at 0.5 ppm", "setting": "Helicoverpa armigera; [2]", "result": 85, "unit": "%"}]}]}
